# Assay results taken from patent publication US20030078304A1, “Method of inhibiting the expression of inflammatory cytokines and chemokines” (priority 2000, published 2003).
# Tested on: NF-κB
# Test: NF-κB-dependent luciferase reporter gene assay in UV-C exposed HeLa cells
# Assay type: cell-based, human
# Description: HeLa cells were transfected with a NF-κB-dependent reporter gene and exposed to UV-C 24 hours after transfection. Pretreatment with Astaxanthin was done 3 hours prior to irradiation, where indicated. Cells were harvested and luciferase activity was measured 14-18 hours following exposure. The ratio between Firefly and Renilla luciferase activity is represented as fold activation over the activity in unstimulated control cells. The standard error is based on two identical experiments.
# The human […] cell line Hela Tet/off was cultured in MEM alpha medium supplemented with 10% fetal calf serum, penicillin and streptomycin (Gibco Grand Island, N.Y.). The day before transfection, cells were plated on 6 cm dishes in a medium containing 2.5% fetal calf serum. On the day of transfection, the cell culture medium was changed to fresh medium (2.5% fetal calf serum).
# A stock solution of Astaxanthin was prepared by dissolving synthetic Astaxanthin (Sigma) in 99.6% ethanol. The concentration of Astaxanthin was measured by spectrophotometry, and the absorbance maximum at 474-479 run was used to calculate the concentration, according to the formula: Absmax/210.
# The 6XκB-Luc plasmid contains a firefly luciferase reporter gene driven by 6 NF-κB binding sites cloned upstream of a TK promoter (Meyer et al. 1993). […]
structure (smiles),measurement,setting,value
CC1=C(/C=C/C(C)=C/C=C/C(C)=C/C=C/C=C(C)/C=C/C=C(C)/C=C/C2=C(C)C(=O)[C@@H](O)CC2(C)C)C(C)(C)C[C@H](O)C1=O [Astaxanthin],effect on the activation of NF-κB effected by UV exposure,"HeLa cells transfected with NF-κB-dependent reporter gene, UV-C, pretreatment 3 hours prior to irradiation (FIG. 1)",inhibits the activation of NF-κB effected by UV exposure
same,repression of UV-C induced activation of NF-κB-dependent reporter gene,"HeLa cells, 6xκB-Luc reporter, UV-C 10 J/m^2, Astaxanthin pretreatment 3 hours at the highest concentration, luciferase 14-18 hours after exposure",~3 fold
